This is an account of results in patent US20090203523A1, “Fungicidal Mixtures Made From 1-Methylpyrazol-4-Ylcarboxanilides” (BASF AKTIENGESSELLSCHFT, priority 2005, published 2009).

One may read the melting point as the temperature of the solid-liquid transition.

One data set relates to Botrytis cinerea. The data set is described as follows: Activity against gray mold on bell pepper leaves, 1 day protective use. Type of data set: in vivo. Conditions: 16 mg/l; bell pepper seedlings, efficacy in % of untreated control, evaluated after 5 days.
The subject of data set [1] is Puccinia recondita. Nature of the data set: Curative activity against brown rust of wheat. The class given is in vivo. Conditions: wheat seedlings, efficacy in % of untreated control, 7 days.
In another data set the test system is Pyrenophora teres. Nature of the data set: Activity against net blotch of barley, 1 day protective application. The class given is in vivo. Conditions: barley seedlings, efficacy in % of untreated control, evaluated after 6 days.
For data set [2], the system named is Puccinia recondita. Nature of the data set: Protective activity against brown rust of wheat. Conditions: wheat seedlings, efficacy in % of untreated control. Type of data set: in vivo.
A further data set deals with Phytophthora infestans. Type of data set: cell-based. Conditions: 0.25 mg/l; microtiter plate, absorption at 405 nm on day 7.

The molecule `Cc1nn(C)c(Cl)c1C(=O)Nc1ccccc1-c1ccc(C(F)(F)F)cc1` [No. I.5, N-(4′-trifluoromethylbiphenyl-2-yl)-1,3-dimethyl-5-chloro-1H-pyrazole-4-carboxamide] registered a melting point of 173 to 175 °C.

In turn, `Cn1cc(C(=O)Nc2ccccc2-c2ccc(C(F)(F)F)cc2)c(CF)n1` [No. I.7, N-(4′-trifluoromethylbiphenyl-2-yl)-1-methyl-3-fluoromethyl-1H-pyrazole-4-carboxamide] came in with a melting point of 156 to 158 °C.

`Cn1nc(C(F)(F)F)c(C(=O)Nc2ccccc2-c2ccc(C(F)(F)F)cc2)c1F` [No. I.3, N-(4′-trifluoromethylbiphenyl-2-yl)-1-methyl-3-trifluoromethyl-5-fluoro-1H-pyrazole-4-carboxamide]: the melting point is 170 to 173 °C.

Molecule `Cn1nc(Cl)c(C(=O)Nc2ccccc2-c2ccc(C(F)(F)F)cc2)c1C(F)F` [No. I.8, N-(4′-trifluoromethylbiphenyl-2-yl)-1-methyl-3-chlorodifluoromethyl-1H-pyrazole-4-carboxamide] gave a melting point of 193 to 196 °C.

`COC(=O)N(OC)c1ccccc1COc1ccn(-c2ccc(Cl)cc2)n1` [pyraclostrobin, methyl N-{2-[1-(4-chlorophenyl)-1H-pyrazol-3-yloxymethyl]phenyl}(N-methoxy)carbamate, reference compound]: in the data set with Botrytis cinerea, the “Observed efficacy (% of untreated control)” value worked out at 10%.

Turning to `Fc1ccc([C@]2(Cn3cncn3)O[C@H]2c2ccccc2Cl)cc1` (racemic) [epoxiconazole, (2RS,3SR)-1-[3-(2-chlorophenyl)-2,3-epoxy-2-(4-fluorophenyl)propyl]-1H-1,2,4-triazole, reference compound], the “Observed activity (efficacy, % of untreated control)” value in the data set on Puccinia recondita [1] (0.063 mg/l) is reported as 0%.

For the molecule `COc1cc(C)c(C(=O)c2c(OC)ccc(Br)c2C)c(OC)c1OC` [metrafenone, 3′-bromo-2,3,4,6′-tetramethoxy-2′,6-dimethylbenzophenone], in the data set with Pyrenophora teres (4 mg/l), the Observed activity came out at 0%. In the data set on Puccinia recondita [2] (63 mg/l), the “Observed efficacy (% of untreated control)” value is recorded as 0%.

As for `CC1(C)CC/C(=C\c2ccc(Cl)cc2)C1(O)Cn1cncn1` (stereo not shown) [triticonazole, (5E)-5-[(4-chlorophenyl)methylene]-2,2-dimethyl-1-(1H-1,2,4-triazol-1-ylmethyl)cyclopentanol, reference compound], the “Observed activity (% infection)” value in the data set on Phytophthora infestans worked out at 0%.

`Cc1nn(C)cc1C(=O)Nc1ccccc1-c1ccc(C(F)(F)F)cc1` [No. I.6, N-(4′-trifluoromethylbiphenyl-2-yl)-1,3-dimethyl-1H-pyrazole-4-carboxamide] gave a melting point of 174 to 177 °C.

In turn, `COc1ccc(C(=CC(=O)N2CCOCC2)c2ccc(Cl)cc2)cc1OC` [dimethomorph, 3-(4-chlorophenyl)-3-(3,4-dimethoxyphenyl)-1-morpholin-4-yl-propenone] registered an Observed activity in the data set with Pyrenophora teres (16 mg/l) of 0%. Further, the “Observed efficacy (% of untreated control)” value in the data set with Puccinia recondita [2] (63 mg/l) is given as 0%.

For the molecule `N#Cc1c(Cl)c(Cl)c(Cl)c(C#N)c1Cl` [chlorthalonil, 2,4,5,6-tetrachloroisophthalonitrile, reference compound], the Observed activity with Pyrenophora teres (16 mg/l) was 0%. In the data set with Puccinia recondita [1] (16 mg/l), the “Observed activity (efficacy, % of untreated control)” value stood at 0%.

With “zinc ammoniate ethylenebis(dithiocarbamate) [metiram]”, the Observed activity in the data set on Pyrenophora teres (16 mg/l) is recorded as 0%.

`CC1CCN(c2c(-c3c(F)cc(F)cc3F)c(Cl)nc3ncnn23)CC1` [5-chloro-7-(4-methylpiperidin-1-yl)-6-(2,4,6-trifluorophenyl)-[1,2,4]triazolo[1,5-a]pyrimidine]: in the data set with Pyrenophora teres (1 mg/l), the Observed activity was determined as 44%.

In the case of `Cn1cc(C(=O)Nc2ccccc2-c2ccc(C(F)(F)F)cc2)c(C(F)F)n1` [No. I.2, N-(4′-trifluoromethylbiphenyl-2-yl)-3-difluoromethyl-1-methyl-1H-pyrazole-4-carboxamide], the melting point was in the range of 164 to 165 °C. For the same molecule, the “Observed efficacy (% of untreated control)” value in the data set with Botrytis cinerea is recorded as 70%. In the data set on Puccinia recondita [1] (0.25 mg/l), the “Observed activity (efficacy, % of untreated control)” value came to 0%. Also, the “Observed activity (efficacy, % of untreated control)” value with Puccinia recondita [1] (1 mg/l) is listed as 56%. The “Observed efficacy (% of untreated control)” value in the data set on Puccinia recondita [2] (16 mg/l) is reported as 0%.

Molecule `Cn1cc(C(=O)Nc2ccccc2-c2ccc(C(F)(F)F)cc2)c(C(F)(F)F)n1` [No. I.1, N-(4′-trifluoromethylbiphenyl-2-yl)-1-methyl-3-trifluoromethyl-1H-pyrazole-4-carboxamide] came in with a melting point of 175 to 177 °C. In addition, in the data set on Pyrenophora teres (0.25 mg/l), the Observed activity worked out at 11%. In the data set on Pyrenophora teres (1 mg/l), this molecule returned an Observed activity of 56%. For the same molecule, the “Observed activity (% infection)” value with Phytophthora infestans amounted to 3%.
